Experimental data published in US20120177701A1, “COMPOSITIONS COMPRISING IMMUNOSTIMULATORY NUCLEIC ACIDS AND RELATED METHODS” (priority 2010, published 2012).

How the values were obtained:
murine splenocytes = experiment: Immune cell activation (CD69 expression, FACS) in murine splenocytes; assay type: cell-based, mouse; conditions: 20 hours
Procedure: In addition, upon removal of the supernatant at 20 hours post-incubation, the mouse cells were stained for the following cell markers: GR1, F4/80, CD11c, CD220, CD3, Ly49b, and CD69, and analyzed by FACS. Different immune cell populations were distinguished as follows: macrophages (F4/80^+/GR1^−); plasmacytoid dendritic cells or pDC (CD11c^+/CD220^+); B cells (CD220^+/CD11c^−); NK (CD3^−/Ly49b^+); myeloid DC or mDC ([…]); granulocytes (eosinophils) (GR1^+high/F4/80^−); T cells (CD3^+); and NKT cells (CD3^+/Ly49b^+). All immune cell populations were quantified by the expression of CD69 (am early activation marker).

human TLR8 = target: T1, human TLR8 (Homo sapiens, UniProt Q9NR97); experiment: HEK-Blue hTLR8 NF-kB-inducible SEAP reporter assay (TLR8 activation); assay type: cell-based
T1 construct: host or cells: HEK293 (HEK-Blue hTLR8) with NF-kB-inducible SEAP reporter
T1 sequence (Q9NR97 27-1041): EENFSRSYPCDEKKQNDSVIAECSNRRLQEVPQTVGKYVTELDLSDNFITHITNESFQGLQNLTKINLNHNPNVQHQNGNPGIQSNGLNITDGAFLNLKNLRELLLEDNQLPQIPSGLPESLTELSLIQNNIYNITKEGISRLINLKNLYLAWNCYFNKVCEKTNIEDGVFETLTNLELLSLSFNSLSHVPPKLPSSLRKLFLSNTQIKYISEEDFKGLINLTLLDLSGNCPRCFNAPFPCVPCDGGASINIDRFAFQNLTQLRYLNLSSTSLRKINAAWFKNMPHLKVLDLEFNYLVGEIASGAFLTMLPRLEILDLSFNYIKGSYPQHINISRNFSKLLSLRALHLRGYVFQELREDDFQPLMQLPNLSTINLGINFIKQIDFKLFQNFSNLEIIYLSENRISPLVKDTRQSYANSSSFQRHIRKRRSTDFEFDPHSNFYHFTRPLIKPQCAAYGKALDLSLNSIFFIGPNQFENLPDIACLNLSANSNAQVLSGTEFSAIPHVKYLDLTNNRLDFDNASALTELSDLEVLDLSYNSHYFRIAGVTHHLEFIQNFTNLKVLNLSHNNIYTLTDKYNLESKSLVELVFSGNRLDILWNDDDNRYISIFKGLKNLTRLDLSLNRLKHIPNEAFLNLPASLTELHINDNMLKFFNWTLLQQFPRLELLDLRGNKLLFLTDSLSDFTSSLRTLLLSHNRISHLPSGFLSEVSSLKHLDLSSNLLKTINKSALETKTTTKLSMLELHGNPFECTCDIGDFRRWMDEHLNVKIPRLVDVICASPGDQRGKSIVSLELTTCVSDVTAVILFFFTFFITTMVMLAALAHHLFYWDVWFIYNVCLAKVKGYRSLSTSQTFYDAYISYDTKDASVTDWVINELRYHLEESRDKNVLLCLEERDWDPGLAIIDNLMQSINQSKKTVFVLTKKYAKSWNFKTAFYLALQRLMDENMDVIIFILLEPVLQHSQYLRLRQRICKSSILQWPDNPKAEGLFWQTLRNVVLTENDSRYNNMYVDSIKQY

[1] = test system: primary human lymphocytes; assay type: cell-based; conditions: 20 hours
[2] = 200 nM, compared with R848 1 μM

5′-GAGAUGUUAUUUUGUUUUUAAUAUUUC-3′ (phosphorothioate backbone, further chemistry not given here) [SL-0001, phosphorothioated 27-ribonucleotide from the 3′-terminus of Chikungunya virus strain TSI-GSD-218, bases 12010-12036]
activation of immune cell populations (CD69 expression) (murine splenocytes; 200 nM DOTAP-complexed): induced activation in most of the tested immune cell populations
immune cell activation compared with R848 and control oligonucleotide (murine splenocytes; 200 nM DOTAP-complexed, R848 1 μM): at least comparable to that generated by treatment with 1 μM of R848, and usually exceeded the effects exhibited by the control oligonucleotide R-0006
NKT cell activation (CD69) (murine splenocytes; [2]): exceeded the activation observed for R848
T cell activation (CD69) (murine splenocytes; [2]): exceeded the activation observed for R848
granulocyte activation (CD69) (murine splenocytes; [2]): exceeded the activation observed for R848
macrophage activation (CD69) (murine splenocytes; 200 nM, compared with R-0006): especially higher than the activation observed for R-0006
TLR8 activation (fold increase of SEAP induction over the background), described in words (human TLR8): stronger levels of TLR8 activation
concentration at which TLR8 activation was detected starting (human TLR8): 40 nM
11-12(p40) induction [1]: significant levels
IFNγ induction [1]: significant levels
IL-4 induction (Th2-type cytokine) [1]: insignificant
IL-5 induction (Th2-type cytokine) [1]: insignificant
IL-6 induction [1]: significant levels
IL-10 induction [1]: significant levels
IL-23 induction [1]: significant levels
TNFα induction [1]: significant levels
